How the values were obtained:
[1] = biological target: Bromodomain-containing protein 3 (Homo sapiens, UniProt Q15059); test: (§1) TR-FRET In-Vitro Binding Assay: All assays were performed in 384-well microtiter plates. Each assay plate contained 8-point serial dilutions for 40 test compounds, plus 16 high- and 16 low controls. Liquid handling and incubation steps were done on an Innovadyne Nanodrop Express equipped with a robotic arm (Thermo CatX, Perkin Elmer/Caliper Twister II) and an incubator (Liconic STX40, Thermo Cytomat 2C450). The assay plates were prepared by addition of 50 nl per well of compound solution in 90% DMSO HummingBird nanodispenser (Zinsser Analytic). The assay was started by stepwise addition of 4.5 uL per well of bromo domain protein (50 mM HEPES, pH 7.5, 0.005% Tween20, 0.1% BSA, 50 mM NaCl, 45 nM His-Brd2(60-472) or 45 nM His-Brd3(20-477) or 45 nM His-Brd4(44-477) all proteins produced in-house) and 4.5 uL per well of peptide solution (50 mM HEPES, pH 7.5, 0.005% Tween20, 0.1% BSA, 50 mM NaCl, 60 nM acetyl-histone H4 (AcK 5, 8, 12, 16) (Biosyntan GmbH)). Reactions were incubated at 30 C. for 35 minutes.
[2] = biological target: Bromodomain-containing protein 2 (Homo sapiens, UniProt P25440); test: as §1
[3] = biological target: Bromodomain-containing protein 4 (Homo sapiens, UniProt O60885); test: as §1
CREB-binding protein = CREB-binding protein (Homo sapiens, UniProt Q92793); test: AlphaScreen In-Vitro Binding Assay: In order to assess bromodomain selectivity, we set up a binding assay using the bromodomain encoded by the CREBBP gene. Compounds were tested in the CREBBP assay with a similar protocol, however using AlphaScreen (Amplified Luminescent Proximity Homogeneous Assay, Perkin Elmer) as detection readout instead of TR-FRET. The assay was started by stepwise addition of 4.5 uL per well of bromo domain protein (50 mM HEPES, pH 7.5, 0.005% Tween20, 0.02% BSA, 150 mM NaCl, 324 nM His-CREBBP (1081-1197) (custom production at Viva Biotech Ltd.)) and 4.5 uL per well of peptide solution (50 mM HEPES, pH 7.5, 0.005% Tween20, 0.02% BSA, 150 mM NaCl, 120 nM acetyl-histone H4 (AcK 5, 8, 12) (Biosyntan GmbH)). Reactions were incubated at 30 C. for 35 minutes. Subsequently 4.5 uL per well detection mix (50 mM HEPES, pH 7.5, 0.005% Tween20, 0.02% BSA, 150 mM NaCl, 45 ug/ml Ni-chelate acceptor beads, 45 ug/mL streptavidin-donor beads) (Perkin Elmer)) were added.
CREB-binding protein, sequence (Q92793 whole entry, the tested form may be a part): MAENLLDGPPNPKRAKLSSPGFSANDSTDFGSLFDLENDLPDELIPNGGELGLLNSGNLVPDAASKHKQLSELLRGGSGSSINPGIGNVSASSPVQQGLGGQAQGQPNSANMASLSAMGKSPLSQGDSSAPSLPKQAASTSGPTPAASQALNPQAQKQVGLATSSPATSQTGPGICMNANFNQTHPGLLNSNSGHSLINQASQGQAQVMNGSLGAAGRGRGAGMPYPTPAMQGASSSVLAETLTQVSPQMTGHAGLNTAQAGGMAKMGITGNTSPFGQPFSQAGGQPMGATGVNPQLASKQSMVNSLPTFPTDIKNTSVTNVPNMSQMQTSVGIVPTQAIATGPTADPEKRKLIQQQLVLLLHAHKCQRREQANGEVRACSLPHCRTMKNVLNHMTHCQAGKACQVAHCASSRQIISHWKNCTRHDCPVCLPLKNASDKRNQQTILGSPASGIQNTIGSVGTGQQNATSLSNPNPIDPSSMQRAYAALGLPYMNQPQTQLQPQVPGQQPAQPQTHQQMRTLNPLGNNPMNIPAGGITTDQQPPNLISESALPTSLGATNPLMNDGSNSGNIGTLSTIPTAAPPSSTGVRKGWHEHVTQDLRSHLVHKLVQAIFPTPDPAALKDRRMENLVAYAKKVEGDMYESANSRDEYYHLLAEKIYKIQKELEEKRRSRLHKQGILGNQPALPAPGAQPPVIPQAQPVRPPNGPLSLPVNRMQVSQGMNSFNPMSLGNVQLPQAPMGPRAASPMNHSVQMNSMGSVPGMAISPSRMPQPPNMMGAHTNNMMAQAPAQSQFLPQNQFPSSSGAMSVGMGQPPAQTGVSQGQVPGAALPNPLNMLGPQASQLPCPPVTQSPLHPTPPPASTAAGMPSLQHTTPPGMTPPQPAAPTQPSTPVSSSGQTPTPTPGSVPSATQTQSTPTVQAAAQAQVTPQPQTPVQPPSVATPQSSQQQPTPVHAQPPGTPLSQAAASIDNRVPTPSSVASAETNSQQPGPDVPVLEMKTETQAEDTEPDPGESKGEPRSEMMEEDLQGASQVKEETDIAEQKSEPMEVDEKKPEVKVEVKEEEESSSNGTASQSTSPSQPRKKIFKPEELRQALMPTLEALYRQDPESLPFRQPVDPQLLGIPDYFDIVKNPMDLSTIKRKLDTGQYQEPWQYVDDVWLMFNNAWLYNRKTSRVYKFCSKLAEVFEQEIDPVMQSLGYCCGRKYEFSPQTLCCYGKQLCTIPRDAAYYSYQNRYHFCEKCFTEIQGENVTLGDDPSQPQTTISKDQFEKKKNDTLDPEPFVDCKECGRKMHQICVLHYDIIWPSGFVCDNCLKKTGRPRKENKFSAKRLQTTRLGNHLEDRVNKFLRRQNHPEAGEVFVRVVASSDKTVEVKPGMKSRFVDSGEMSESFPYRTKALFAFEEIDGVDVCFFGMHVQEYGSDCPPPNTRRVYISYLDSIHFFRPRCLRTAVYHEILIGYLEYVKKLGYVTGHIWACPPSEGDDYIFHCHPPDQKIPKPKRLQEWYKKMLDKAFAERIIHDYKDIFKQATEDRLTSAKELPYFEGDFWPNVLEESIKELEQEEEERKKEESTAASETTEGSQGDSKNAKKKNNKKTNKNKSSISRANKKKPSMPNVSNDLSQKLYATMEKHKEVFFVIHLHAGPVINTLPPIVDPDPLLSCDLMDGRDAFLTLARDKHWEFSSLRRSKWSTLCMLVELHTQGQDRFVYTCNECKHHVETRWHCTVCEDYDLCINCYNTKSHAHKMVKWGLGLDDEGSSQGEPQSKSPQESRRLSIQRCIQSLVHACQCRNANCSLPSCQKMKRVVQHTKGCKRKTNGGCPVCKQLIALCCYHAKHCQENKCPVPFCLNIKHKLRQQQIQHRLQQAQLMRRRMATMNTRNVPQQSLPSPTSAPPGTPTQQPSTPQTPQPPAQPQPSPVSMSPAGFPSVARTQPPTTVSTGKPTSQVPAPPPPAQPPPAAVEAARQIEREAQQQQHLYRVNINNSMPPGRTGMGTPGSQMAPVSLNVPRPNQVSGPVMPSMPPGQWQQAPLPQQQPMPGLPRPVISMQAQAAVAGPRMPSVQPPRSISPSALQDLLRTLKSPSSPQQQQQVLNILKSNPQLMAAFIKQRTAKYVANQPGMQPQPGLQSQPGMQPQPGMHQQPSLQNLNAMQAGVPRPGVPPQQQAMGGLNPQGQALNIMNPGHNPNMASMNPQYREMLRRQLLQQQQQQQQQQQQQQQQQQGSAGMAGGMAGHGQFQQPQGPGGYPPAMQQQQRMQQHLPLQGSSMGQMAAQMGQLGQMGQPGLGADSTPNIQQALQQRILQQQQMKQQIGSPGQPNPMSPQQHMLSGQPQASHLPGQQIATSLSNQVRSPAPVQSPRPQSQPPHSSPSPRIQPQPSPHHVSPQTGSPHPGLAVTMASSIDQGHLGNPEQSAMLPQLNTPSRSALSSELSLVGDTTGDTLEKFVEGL

Bromodomain-containing protein 2, sequence (P25440 whole entry): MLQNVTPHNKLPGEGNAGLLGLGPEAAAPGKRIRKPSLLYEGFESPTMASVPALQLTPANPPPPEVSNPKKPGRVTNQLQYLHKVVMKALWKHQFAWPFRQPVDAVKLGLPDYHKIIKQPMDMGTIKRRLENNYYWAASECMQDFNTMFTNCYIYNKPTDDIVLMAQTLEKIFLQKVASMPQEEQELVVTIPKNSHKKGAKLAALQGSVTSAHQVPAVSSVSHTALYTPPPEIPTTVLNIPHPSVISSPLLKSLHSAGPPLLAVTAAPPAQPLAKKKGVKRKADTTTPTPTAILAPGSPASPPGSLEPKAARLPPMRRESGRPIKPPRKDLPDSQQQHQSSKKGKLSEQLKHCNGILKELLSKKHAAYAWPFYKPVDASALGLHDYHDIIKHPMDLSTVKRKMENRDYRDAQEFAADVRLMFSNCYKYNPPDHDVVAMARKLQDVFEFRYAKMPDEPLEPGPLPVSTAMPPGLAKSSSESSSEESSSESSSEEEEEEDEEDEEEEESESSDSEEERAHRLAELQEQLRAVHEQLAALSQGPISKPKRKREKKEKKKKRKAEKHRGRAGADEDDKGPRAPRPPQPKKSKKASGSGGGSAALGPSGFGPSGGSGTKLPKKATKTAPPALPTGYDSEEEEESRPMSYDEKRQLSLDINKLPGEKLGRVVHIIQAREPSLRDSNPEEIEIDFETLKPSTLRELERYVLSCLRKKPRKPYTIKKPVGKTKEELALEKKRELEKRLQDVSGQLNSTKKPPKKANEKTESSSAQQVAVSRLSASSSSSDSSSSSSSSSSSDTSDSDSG
Bromodomain-containing protein 3, sequence (Q15059 whole entry, the tested form may be a part): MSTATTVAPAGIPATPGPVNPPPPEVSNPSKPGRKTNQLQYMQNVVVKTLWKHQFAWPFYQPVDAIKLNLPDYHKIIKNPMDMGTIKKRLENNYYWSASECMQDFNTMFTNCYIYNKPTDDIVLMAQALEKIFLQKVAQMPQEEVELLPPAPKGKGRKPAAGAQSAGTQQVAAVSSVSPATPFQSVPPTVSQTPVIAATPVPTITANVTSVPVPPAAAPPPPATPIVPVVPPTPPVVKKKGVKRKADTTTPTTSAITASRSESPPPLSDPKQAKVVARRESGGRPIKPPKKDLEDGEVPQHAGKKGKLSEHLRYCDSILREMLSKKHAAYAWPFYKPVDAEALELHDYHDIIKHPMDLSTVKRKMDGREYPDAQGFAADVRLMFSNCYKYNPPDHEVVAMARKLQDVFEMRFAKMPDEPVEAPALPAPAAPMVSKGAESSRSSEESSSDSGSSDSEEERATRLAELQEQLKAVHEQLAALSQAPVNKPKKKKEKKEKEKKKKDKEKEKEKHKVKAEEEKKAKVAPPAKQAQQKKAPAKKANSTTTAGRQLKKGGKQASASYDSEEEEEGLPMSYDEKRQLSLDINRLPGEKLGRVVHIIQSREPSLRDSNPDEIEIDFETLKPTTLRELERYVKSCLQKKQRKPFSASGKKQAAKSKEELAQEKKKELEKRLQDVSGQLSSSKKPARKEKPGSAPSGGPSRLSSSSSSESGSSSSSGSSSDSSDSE

Compound | IC50 [1] | IC50 [2] | IC50 [3] | IC50 (CREB-binding protein)
Cc1cc(N2C(=O)c3nn(C(C)C)c(C)c3C2c2ccc(Cl)cc2F)cn2c(C)nnc12 (stereo not given) | 0.06 µM | 0.12 µM | 0.071 µM | 2.6 µM
CCc1nn(CCOC)c2c1C(c1ccc(Cl)cc1)N(c1cc(C)c(=O)n(C)c1)C2=O (stereo not given) | 0.044 µM | 0.052 µM |  | 4.8 µM
COc1ncccc1-n1nc2c(c1C)C(c1ccc(F)cc1F)N(c1cc(C)c3nnc(C)n3c1)C2=O (stereo not given) | 0.08 µM | 0.13 µM | 0.055 µM | 16 µM
Cc1[nH]nc2c1C(c1ccc(Cl)cc1F)N(c1cc(C)c(=O)n(C)c1)C2=O (stereo not given) | 0.17 µM | 0.27 µM | 0.19 µM | 2.8 µM

Source: ChEMBL document CHEMBL3638496, “Pyrazolopyrrolidine derivatives and their use in the treatment of disease” (2015)
